Source: article PMC4858680, “A platinum-based hybrid drug design approach to circumvent acquired resistance to molecular targeted tyrosine kinase inhibitors” (Scientific Reports, 2016)
Read-outs that look alike come from different tables or passages of the source.

Legend:
Assay type in all cases: binding
[1] = molecular target: T1, BMX (Homo sapiens, UniProt P51813); details: for remaining binding at 10 µM: read-out: Percent control
T1 construct: purchased DiscoveRx KINOMEscan
T1 sequence (P51813 1-675): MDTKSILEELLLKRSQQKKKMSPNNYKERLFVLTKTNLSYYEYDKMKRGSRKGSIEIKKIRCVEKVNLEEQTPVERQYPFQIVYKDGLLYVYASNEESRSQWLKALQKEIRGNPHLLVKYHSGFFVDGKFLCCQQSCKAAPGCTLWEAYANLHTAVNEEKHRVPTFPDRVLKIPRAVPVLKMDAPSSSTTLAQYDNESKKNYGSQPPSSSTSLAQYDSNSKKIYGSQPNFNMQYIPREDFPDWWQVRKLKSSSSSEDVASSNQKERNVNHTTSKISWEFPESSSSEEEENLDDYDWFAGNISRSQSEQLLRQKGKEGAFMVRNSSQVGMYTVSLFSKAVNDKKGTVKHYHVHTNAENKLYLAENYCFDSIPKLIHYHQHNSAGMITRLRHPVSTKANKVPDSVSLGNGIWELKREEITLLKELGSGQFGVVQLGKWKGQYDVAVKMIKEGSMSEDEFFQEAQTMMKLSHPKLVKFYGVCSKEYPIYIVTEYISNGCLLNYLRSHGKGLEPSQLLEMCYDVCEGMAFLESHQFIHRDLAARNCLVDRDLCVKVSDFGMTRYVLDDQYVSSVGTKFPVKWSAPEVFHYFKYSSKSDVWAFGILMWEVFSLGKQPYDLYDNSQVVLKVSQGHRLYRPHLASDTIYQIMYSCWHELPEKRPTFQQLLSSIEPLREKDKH

[2] = molecular target: T2, BLK (Homo sapiens, UniProt P51451); details: for Percent control: BLK, 10 μM; for remaining binding at 10 µM: read-out: Percent control
T2 construct: purchased DiscoveRx KINOMEscan

[3] = molecular target: T3, FGR (Homo sapiens, UniProt P09769); details: for Percent control: 10 μM; for remaining binding at 10 µM: read-out: Percent control
T3 construct: purchased DiscoveRx KINOMEscan

[4] = molecular target: T4, TRKA (Homo sapiens, UniProt P04629); details: for remaining binding at 10 µM: read-out: Percent control
T4 construct: purchased DiscoveRx (KINOMEscan service)

[5] = molecular target: T5, FES (Homo sapiens, UniProt P07332); details: for remaining binding at 10 µM: read-out: Percent control
T5 construct: purchased DiscoveRx KINOMEscan

[6] = molecular target: T6, INSR (Homo sapiens, UniProt P06213); details: for remaining binding at 10 µM: read-out: Percent control
T6 construct: purchased DiscoveRx KINOMEscan

[7] = molecular target: T7, TRKB (Homo sapiens, UniProt Q16620); details: for remaining binding at 10 µM: read-out: Percent control
T7 construct: purchased DiscoveRx (KINOMEscan service)

[8] = molecular target: T8, TEC (Homo sapiens, UniProt P42680); details: for remaining binding at 10 µM: read-out: Percent control
T8 construct: purchased DiscoveRx (KINOMEscan service)
T8 sequence (P42680 1-631): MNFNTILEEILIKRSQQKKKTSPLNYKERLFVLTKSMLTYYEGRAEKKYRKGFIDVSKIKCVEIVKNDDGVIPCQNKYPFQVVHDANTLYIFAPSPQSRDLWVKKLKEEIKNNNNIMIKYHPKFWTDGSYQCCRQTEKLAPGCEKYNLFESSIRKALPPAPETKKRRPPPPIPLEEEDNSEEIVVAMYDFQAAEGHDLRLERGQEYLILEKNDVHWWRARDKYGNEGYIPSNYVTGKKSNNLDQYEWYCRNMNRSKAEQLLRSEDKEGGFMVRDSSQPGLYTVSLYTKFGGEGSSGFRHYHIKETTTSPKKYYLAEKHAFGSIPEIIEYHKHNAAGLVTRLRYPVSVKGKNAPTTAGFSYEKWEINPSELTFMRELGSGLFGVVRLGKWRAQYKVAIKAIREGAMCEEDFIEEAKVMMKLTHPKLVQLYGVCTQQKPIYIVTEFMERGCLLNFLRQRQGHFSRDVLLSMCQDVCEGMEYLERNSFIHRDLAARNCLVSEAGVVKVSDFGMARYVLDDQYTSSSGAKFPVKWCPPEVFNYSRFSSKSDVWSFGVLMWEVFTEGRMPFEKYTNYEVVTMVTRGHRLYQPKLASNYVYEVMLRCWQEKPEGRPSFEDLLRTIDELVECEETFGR

[9] = molecular target: T9, IGF1R (Homo sapiens, UniProt P08069); details: for remaining binding at 10 µM: read-out: Percent control
T9 construct: purchased DiscoveRx KINOMEscan

[10] = molecular target: T10, EPHB3 (Homo sapiens, UniProt P54753); details: for remaining binding at 10 µM: read-out: Percent control
T10 construct: purchased DiscoveRx KINOMEscan
T10 sequence (P54753 34-998): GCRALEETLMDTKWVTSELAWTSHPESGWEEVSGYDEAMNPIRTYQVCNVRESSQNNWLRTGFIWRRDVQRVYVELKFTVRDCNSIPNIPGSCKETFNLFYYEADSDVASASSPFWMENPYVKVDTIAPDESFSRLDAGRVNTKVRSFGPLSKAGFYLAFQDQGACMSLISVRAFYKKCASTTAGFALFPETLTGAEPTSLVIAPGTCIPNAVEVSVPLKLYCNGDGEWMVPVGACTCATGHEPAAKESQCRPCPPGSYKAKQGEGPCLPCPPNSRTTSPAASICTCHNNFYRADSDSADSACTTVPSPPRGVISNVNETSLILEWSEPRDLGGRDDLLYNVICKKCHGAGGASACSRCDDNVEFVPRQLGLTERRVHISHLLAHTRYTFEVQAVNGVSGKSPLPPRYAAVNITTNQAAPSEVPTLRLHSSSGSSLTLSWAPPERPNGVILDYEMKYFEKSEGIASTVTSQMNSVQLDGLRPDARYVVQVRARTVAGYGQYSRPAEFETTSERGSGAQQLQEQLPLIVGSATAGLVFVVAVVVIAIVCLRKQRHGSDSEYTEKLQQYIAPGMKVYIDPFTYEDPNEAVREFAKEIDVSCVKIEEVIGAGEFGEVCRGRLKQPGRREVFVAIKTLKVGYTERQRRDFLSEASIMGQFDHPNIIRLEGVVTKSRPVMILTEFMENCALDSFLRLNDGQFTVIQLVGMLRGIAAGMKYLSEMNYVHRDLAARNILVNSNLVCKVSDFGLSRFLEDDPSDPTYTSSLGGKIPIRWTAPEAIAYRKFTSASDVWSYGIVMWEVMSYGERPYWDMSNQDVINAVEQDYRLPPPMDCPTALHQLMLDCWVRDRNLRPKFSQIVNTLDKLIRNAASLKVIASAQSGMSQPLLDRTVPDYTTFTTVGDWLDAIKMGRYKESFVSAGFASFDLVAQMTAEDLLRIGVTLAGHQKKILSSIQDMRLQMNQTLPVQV

T3 sequence (P09769 whole entry): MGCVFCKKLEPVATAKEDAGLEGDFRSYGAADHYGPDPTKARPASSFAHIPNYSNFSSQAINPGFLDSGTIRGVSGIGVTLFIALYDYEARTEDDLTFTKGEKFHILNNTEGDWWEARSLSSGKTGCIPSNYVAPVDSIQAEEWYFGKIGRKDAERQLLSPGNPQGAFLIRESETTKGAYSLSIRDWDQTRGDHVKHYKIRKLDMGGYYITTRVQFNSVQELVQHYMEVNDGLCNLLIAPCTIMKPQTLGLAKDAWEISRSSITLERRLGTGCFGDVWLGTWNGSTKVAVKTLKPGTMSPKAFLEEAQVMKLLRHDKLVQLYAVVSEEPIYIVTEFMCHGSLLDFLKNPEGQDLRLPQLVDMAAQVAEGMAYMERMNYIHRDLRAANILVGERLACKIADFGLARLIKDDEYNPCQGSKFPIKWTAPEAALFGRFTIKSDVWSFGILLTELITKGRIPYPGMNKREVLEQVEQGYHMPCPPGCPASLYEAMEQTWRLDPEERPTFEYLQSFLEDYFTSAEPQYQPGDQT
T4 sequence (P04629 33-796): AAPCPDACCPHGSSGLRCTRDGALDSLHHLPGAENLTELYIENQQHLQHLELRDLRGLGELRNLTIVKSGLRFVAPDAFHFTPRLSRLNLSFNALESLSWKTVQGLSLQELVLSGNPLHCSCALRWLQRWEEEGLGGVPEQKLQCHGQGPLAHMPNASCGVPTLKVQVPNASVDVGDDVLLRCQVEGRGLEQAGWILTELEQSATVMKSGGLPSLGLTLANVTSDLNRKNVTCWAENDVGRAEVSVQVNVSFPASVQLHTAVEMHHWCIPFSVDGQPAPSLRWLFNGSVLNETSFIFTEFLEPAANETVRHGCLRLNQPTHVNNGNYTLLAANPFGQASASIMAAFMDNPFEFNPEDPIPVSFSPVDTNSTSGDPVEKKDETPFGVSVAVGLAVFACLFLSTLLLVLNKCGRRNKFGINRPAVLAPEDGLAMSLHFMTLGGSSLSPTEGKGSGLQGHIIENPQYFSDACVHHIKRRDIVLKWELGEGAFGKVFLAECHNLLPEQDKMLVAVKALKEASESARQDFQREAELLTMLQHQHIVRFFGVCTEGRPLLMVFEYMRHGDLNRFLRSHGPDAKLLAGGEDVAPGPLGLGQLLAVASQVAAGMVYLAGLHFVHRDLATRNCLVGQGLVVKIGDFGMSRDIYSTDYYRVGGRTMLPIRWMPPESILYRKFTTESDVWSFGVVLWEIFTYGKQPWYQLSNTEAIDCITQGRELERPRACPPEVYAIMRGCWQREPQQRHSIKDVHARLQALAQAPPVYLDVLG
T5 sequence (P07332 whole entry): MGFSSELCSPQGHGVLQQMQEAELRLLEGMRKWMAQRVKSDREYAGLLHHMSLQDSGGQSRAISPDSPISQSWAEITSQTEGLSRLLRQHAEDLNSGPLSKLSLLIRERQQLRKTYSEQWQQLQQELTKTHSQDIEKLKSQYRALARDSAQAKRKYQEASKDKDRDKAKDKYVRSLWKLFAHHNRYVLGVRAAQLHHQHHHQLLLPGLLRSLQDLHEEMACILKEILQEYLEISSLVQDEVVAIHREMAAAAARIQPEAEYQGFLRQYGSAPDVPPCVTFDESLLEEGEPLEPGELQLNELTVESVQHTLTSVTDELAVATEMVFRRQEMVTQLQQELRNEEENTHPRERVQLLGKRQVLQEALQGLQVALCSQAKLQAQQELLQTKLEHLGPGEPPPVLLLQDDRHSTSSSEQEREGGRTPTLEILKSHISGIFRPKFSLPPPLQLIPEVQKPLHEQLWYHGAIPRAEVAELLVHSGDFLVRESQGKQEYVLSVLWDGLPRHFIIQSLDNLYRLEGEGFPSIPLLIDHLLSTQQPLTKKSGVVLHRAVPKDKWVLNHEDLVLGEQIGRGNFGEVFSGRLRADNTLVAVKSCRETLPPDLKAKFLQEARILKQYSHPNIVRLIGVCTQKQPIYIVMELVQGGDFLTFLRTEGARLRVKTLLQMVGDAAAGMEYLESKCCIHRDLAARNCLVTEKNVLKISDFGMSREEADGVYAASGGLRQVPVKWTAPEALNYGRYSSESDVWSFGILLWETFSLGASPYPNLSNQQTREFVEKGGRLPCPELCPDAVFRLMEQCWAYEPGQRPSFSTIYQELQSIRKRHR
T6 sequence (P06213 28-1382): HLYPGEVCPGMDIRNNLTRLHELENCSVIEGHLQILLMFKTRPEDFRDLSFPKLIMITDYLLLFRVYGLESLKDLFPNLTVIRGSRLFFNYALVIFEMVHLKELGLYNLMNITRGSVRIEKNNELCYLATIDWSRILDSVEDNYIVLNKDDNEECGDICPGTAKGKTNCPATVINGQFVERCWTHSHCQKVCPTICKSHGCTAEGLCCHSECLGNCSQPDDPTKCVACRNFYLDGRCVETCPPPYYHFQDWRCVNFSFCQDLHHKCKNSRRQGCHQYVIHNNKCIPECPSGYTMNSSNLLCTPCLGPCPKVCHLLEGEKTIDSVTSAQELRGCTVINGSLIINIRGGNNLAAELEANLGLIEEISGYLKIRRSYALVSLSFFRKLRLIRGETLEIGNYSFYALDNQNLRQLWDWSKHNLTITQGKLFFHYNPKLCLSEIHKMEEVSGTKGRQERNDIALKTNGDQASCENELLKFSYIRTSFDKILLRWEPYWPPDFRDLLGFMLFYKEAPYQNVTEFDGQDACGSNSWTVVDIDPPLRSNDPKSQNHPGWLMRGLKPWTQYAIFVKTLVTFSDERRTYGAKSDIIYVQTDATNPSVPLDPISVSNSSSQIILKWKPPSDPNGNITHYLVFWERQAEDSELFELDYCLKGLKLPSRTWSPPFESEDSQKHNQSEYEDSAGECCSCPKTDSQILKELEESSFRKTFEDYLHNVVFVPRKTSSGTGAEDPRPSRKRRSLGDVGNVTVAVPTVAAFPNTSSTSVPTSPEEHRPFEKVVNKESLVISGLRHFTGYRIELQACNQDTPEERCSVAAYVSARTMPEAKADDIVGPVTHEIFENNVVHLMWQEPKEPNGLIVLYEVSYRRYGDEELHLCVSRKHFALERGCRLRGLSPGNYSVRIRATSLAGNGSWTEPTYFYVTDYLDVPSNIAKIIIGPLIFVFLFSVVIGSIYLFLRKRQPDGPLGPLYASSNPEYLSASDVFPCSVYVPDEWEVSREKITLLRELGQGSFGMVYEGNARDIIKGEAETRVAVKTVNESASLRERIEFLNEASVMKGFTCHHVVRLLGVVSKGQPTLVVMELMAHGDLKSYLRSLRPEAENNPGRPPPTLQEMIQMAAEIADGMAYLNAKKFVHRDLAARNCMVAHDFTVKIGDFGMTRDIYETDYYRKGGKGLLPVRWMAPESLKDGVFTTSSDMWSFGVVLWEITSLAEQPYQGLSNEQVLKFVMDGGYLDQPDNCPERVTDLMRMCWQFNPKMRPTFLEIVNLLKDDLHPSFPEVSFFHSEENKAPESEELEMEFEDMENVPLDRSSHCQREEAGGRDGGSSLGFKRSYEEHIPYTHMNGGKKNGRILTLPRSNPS
T2 sequence (P51451 whole entry): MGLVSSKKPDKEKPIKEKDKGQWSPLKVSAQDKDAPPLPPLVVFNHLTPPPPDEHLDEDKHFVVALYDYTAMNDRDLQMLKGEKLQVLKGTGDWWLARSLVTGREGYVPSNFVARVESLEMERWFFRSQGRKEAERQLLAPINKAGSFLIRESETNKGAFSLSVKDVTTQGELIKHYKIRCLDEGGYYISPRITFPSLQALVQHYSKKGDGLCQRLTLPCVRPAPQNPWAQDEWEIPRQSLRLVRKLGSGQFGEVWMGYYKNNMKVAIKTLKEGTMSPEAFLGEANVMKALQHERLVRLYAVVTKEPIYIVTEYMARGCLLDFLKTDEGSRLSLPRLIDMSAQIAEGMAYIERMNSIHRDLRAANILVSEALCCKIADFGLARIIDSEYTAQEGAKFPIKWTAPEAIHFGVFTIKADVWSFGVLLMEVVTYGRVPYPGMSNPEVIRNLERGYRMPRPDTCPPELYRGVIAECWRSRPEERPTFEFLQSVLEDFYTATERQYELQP
T7 sequence (Q16620 32-822): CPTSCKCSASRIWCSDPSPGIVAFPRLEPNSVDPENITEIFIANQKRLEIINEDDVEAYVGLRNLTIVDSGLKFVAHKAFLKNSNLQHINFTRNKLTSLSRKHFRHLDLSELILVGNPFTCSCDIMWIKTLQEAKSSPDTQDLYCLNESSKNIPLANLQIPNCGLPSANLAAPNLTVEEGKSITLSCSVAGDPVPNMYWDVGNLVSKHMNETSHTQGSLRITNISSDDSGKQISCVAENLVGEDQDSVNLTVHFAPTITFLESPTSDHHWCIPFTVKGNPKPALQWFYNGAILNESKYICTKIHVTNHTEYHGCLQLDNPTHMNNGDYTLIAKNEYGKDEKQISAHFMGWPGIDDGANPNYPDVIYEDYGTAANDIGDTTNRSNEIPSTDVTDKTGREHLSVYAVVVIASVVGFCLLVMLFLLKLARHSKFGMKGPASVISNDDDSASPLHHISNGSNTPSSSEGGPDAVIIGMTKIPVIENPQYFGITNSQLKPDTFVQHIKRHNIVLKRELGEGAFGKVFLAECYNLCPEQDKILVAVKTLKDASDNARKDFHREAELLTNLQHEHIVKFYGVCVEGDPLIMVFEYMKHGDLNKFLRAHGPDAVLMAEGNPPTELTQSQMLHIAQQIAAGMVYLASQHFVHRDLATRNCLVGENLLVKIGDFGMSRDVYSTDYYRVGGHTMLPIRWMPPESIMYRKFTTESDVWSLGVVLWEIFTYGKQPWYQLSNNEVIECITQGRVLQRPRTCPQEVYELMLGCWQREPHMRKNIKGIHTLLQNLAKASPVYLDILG

Structure (SMILES): C#Cc1cccc(Nc2c3cc(OCCOC)c(OCCOC)cc3nc[n+]2[Pt@SP2-2]([NH3+])([NH3+])[Cl])c1 [2a, cisplatin-erlotinib]
- Percent control ([1]; BMX, 10 μM): 100%
- Percent control [2]: 41%
- Percent control [3]: 81%
- Percent control ([4]; TRKA, 10 μM): 94%
- Percent control ([5]; FES, 10 μM): 98%
- Percent control ([6]; INSR, 10 μM): 85%
- Percent control ([7]; TRKB, 10 μM): 95%
- Percent control ([8]; TEC, 10 μM): 72%
- Percent control ([9]; IGF1R, 10 μM): 86%
- Percent control ([10]; EPHB3, 10 μM): 88%

Structure (SMILES): COc1cc2c(Nc3ccc(Br)cc3F)[n+]([Pt-2]3([Cl])[NH2+]C4CCCCC4[NH2+]3)cnc2cc1OCC1CCN(C)CC1 (stereo not drawn) [3b, oxaliplatin-vandetanib]
- Percent control ([1]; BMX, 10 μM): 92%
- Percent control [2]: 1.4%
- Percent control [3]: 33%
- Percent control ([4]; TRKA, 10 μM): 92%
- Percent control ([5]; FES, 10 μM): 100%
- Percent control ([6]; INSR, 10 μM): 72%
- Percent control ([7]; TRKB, 10 μM): 72%
- Percent control ([8]; TEC, 10 μM): 100%
- Percent control ([9]; IGF1R, 10 μM): 100%
- Percent control ([10]; EPHB3, 10 μM): 100%

Structure (SMILES): Cc1ccc(NC(=O)c2ccc(CN3CCN(C)CC3)cc2)cc1Nc1nccc(-c2cccnc2)[n+]1[Pt-2]1([Cl])[NH2+]C2CCCCC2[NH2+]1 (stereo not drawn) [1b, oxaliplatin-imatinib]
- Percent control ([1]; BMX, 10 μM): 98%
- Percent control [2]: 12%
- Percent control [3]: 80%
- Percent control ([4]; TRKA, 10 μM): 98%
- Percent control ([5]; FES, 10 μM): 96%
- Percent control ([6]; INSR, 10 μM): 92%
- Percent control ([7]; TRKB, 10 μM): 100%
- Percent control ([8]; TEC, 10 μM): 100%
- Percent control ([9]; IGF1R, 10 μM): 100%
- Percent control ([10]; EPHB3, 10 μM): 87%

Structure (SMILES): COc1cc2c(Nc3ccc(Br)cc3F)ncnc2cc1OCC1CCN(C)CC1 [Vandetanib, reference compound]
- remaining binding at 10 µM ([1]; BMX, 10 μM): 100%
- remaining binding at 10 µM [2]: 0.7%
- remaining binding at 10 µM [3]: 2.6%
- remaining binding at 10 µM ([4]; TRKA, 10 μM): 100%
- remaining binding at 10 µM ([5]; FES, 10 μM): 100%
- remaining binding at 10 µM ([6]; INSR, 10 μM): 100%
- remaining binding at 10 µM ([7]; TRKB, 10 μM): 100%
- remaining binding at 10 µM ([8]; TEC, 10 μM): 100%
- remaining binding at 10 µM ([9]; IGF1R, 10 μM): 100%
- remaining binding at 10 µM ([10]; EPHB3, 10 μM): 100%

Structure (SMILES): Cc1ccc(NC(=O)c2ccc(CN3CCN(C)CC3)cc2)cc1Nc1nccc(-c2cccnc2)n1 [Imatinib, reference compound]
- Percent control ([1]; BMX, 10 μM): 100%
- Percent control [2]: 4.9%
- Percent control [3]: 19.4%
- Percent control ([4]; TRKA, 10 μM): 100%
- Percent control ([5]; FES, 10 μM): 100%
- Percent control ([6]; INSR, 10 μM): 100%
- Percent control ([7]; TRKB, 10 μM): 100%
- Percent control ([8]; TEC, 10 μM): 100%
- Percent control ([9]; IGF1R, 10 μM): 100%
- Percent control ([10]; EPHB3, 10 μM): 100%

Structure (SMILES): C#Cc1cccc(Nc2ncnc3cc(OCCOC)c(OCCOC)cc23)c1 [Erlotinib]
- remaining binding at 10 µM [1]: 100%
- remaining binding at 10 µM [2]: 1.9%
- remaining binding at 10 µM [3]: 9.9%
- remaining binding at 10 µM [4]: 100%
- remaining binding at 10 µM [5]: 100%
- remaining binding at 10 µM [6]: 100%
- remaining binding at 10 µM [7]: 100%
- remaining binding at 10 µM [8]: 100%
- remaining binding at 10 µM [9]: 100%
- remaining binding at 10 µM [10]: 100%
